Assay results as given in patent US20240208912A1 (Mirati Therapeutics, Inc., priority 2021, published 2024).
Where two headings read alike, the source gives them in different places.

Experiments:
[1] = test system: HCT116 homozygous MTAP knockout cells; assay: Proliferation assay (CellTiter-Glo, 10 days) in HCT116 homozygous MTAP knockout cells; assay type: cell-based; details: CellTiter-Glo after 10 days of treatment, read-out: Proliferation IC50 (nM) HCT116 MTAP_KO
In short: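 CellTiter-Glo viability read on day 11 gives a 10-day IC50. Dosing began one day after seeding, with a 1:10 split into fresh drug-containing medium on day 6. Cells are HCT116 lacking both MTAP alleles via CRISPR/Cas9, run alongside the parental line.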

PRMT5/MEP50 complex = target: T1, PRMT5/MEP50 complex (Homo sapiens, UniProt O14744); assay: PRMT5:MEP50 HotSpot Assay (full-length histone H2A substrate, plus and minus MTA); assay type: biochemical; details: IC50 + 2 μM MTA, in the presence of 2 μM MTA
T1 construct: purchased Reaction Biology Corporation
In short: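 Tritiated product on full-length recombinant H2A was counted by scintillation after the stopped reaction was captured on filter paper. Substrate is histone H2A; conditions include plus and minus MTA.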

[2] = test system: PRMT5-dependent Symmetric Di-methyl Arginine signal in HCT116 homozygous MTAP Knockout cells; assay: SYM11 In-Cell Western in HCT116 homozygous MTAP knockout cells; assay type: cell-based; details: 4 days of treatment, SYM11/DRAQ5 ratio as percent of DMSO control, read-out: In-cell-Western (SYM11) IC50 (nM) HCT116 MTAP_KO
Procedure: HCT116 cells were genetically engineered to knock out the function of both MTAP alleles using a CRISPR/Cas9 system and an sgRNA targeting the MTAP gene. Following Cas9/MTAP sgRNA transduction, clones were screened to confirm that each allele of the MTAP gene had been inactivated (i.e., homozygous MTAP knock out) creating an MTAP-deficient cell.
Control samples were analyzed in parallel.
Briefly, on Day 0, 2,000 HCT116 parental or HCT116 homozygous MTAP knockout cells were seeded in 96 well plates in McCoy's 5A supplemented with 10% fetal bovine serum and pen/strep and the cells were incubated overnight at 37° C. plus 5% CO2. The following day, cells were treated with DMSO vehicle control or a dose response of PRMT5 inhibitors, and incubated at 37° C. plus 5% CO^2 for four days.
After 4 days of treatment, the cells were fixed by adding 50 μl of 4% paraformaldehyde solution to each well and the cells were incubated for 20 min at room temperature. The paraformaldehyde solution was removed, 150 μl of ice-cold methanol was added and the plate was placed −20° C. for 10 minutes. The methanol was removed, 150 μl of Odyssey Blocking buffer+0.05% Tween20 was added and the plate was incubated at room temperature with shaking for one hour.
The primary SYM11 antibody solution was removed by aspiration and the wells were washed three consecutive times with phosphate buffered saline containing 0.1% Tween-20 (PBST).
The secondary antibody solution was removed by aspiration and the wells were washed three consecutive times with PBST.
The SYM11 signal and the DRAQ5 signal were quantified using a Li-Cor Odyssey machine reading at […], respectively. The SYM11/DRAQ5 ratio was used to calculate the inhibition of Symmetric Dimethyl Arginine as percent of DMSO control.

T1 sequence (O14744 2-637 limits assumed): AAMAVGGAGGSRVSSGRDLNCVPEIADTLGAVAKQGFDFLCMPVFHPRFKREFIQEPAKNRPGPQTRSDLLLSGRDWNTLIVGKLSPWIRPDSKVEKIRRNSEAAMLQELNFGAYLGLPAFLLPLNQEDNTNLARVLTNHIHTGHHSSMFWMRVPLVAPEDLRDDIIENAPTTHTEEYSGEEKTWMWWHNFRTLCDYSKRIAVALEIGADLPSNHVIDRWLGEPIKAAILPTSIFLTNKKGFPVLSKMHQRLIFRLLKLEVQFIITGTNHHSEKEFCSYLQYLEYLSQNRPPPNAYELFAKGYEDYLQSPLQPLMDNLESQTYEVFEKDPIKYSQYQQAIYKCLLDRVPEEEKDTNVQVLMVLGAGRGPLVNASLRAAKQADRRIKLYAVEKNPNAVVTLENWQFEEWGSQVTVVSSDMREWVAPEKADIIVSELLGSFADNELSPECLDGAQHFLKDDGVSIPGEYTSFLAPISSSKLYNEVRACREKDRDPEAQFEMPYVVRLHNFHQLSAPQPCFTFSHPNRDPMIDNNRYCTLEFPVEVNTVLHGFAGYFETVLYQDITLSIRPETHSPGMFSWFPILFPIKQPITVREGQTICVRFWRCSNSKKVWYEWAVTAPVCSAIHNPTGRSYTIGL
T1 sequence (Q9BQA1 2-342 partner limits assumed): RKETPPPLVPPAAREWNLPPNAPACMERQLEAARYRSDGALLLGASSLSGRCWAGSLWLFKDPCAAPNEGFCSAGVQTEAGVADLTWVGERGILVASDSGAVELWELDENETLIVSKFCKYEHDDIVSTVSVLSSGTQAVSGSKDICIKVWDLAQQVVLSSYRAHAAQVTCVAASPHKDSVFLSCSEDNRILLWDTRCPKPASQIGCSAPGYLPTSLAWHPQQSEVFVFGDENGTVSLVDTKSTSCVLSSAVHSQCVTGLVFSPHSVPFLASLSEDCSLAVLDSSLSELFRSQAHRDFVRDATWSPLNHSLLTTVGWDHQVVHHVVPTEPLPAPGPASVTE

Row | Compound | IC50 [1] [nM] | IC50 (PRMT5/MEP50 complex) [nM] | IC50 [2] [nM] | IC50 ([2]; Homo sapiens, HCT-116, 96 h) [nM] | IC50 ([1]; Homo sapiens, HCT-116, 240 h) [nM]
1 | Cc1cc(-c2cnn(C)c2-c2c(F)ccc(OC3CC3)c2C#N)cc2c(CN)n[nH]c(=O)c12 (atropisomer, axis not shown; (M)) [Example 16-48, (M)-2-[4-[4-(aminomethyl)-8-methyl-1-oxo-2H-phthalazin-6-yl]-2-methyl-pyrazol-3-yl]-6-(cyclopropoxy)-3-fluoro-benzonitrile] | 19 | 128 | 10 | – | –
2 | Cn1ncc(-c2cc(Cl)c3c(=O)[nH]nc(CN)c3c2)c1-c1c(F)ccc(OC2CC2)c1C#N (atropisomer, axis not shown; (M)) [Example 16-56, (M)-2-[4-[4-(aminomethyl)-8-chloro-1-oxo-2H-phthalazin-6-yl]-2-methyl-pyrazol-3-yl]-6-(cyclopropoxy)-3-fluoro-benzonitrile] | 22 | 113 | 9 | – | –
3 | Cc1cc(-c2cnn(C)c2-c2c(F)c(Cl)c3ccccc3c2C#N)cc2c(CN)n[nH]c(=O)c12 (atropisomer, axis not shown; (P)) [Example 16-17, (P)-2-[4-[4-(aminomethyl)-8-methyl-1-oxo-2H-phthalazin-6-yl]-2-methyl-pyrazol-3-yl]-4-chloro-3-fluoro-naphthalene-1-carbonitrile] | 285 | – | 129 | – | –
4 | Cc1cc(-c2cnn(C)c2-c2c(F)ccc(OC3CC3)c2C#N)cc2c(CN)n[nH]c(=O)c12 (atropisomer, axis not shown; (P)) [Example 16-47, (P)-2-[4-[4-(aminomethyl)-8-methyl-1-oxo-2H-phthalazin-6-yl]-2-methyl-pyrazol-3-yl]-6-(cyclopropoxy)-3-fluoro-benzonitrile] | 51 | 304 | – | 11 | –
5 | Cn1ncc(-c2cc(Cl)c3c(=O)[nH]nc(CN)c3c2)c1-c1c(F)ccc(OC2CC2)c1C#N (atropisomer, axis not shown; (P)) [Example 16-55, (P)-2-[4-[4-(aminomethyl)-8-chloro-1-oxo-2H-phthalazin-6-yl]-2-methyl-pyrazol-3-yl]-6-(cyclopropoxy)-3-fluoro-benzonitrile] | 77 | 260 | 57 | – | –
6 | Cn1ncc(-c2ccc3c(=O)[nH]nc(CN)c3c2)c1-c1c(C#N)cc2ccccc2c1Cl (single isomer, unassigned) [Example 16-5] | 2850 | 994 | 272 | – | –
7 | Cn1ncc(-c2ccc3c(=O)[nH]nc(CN)c3c2)c1-c1c(C#N)cc2ccccc2c1Cl (single isomer, unassigned) [Example 16-6] | 64 | 28 | 20 | – | –
8 | Cn1ncc(-c2ccc3c(=O)[nH]nc(CN)c3c2)c1-c1c(F)c(Cl)c2ccccc2c1C#N (single isomer, unassigned) [Example 16-9, (P)-2-[4-[4-(aminomethyl)-1-oxo-2H-phthalazin-6-yl]-2-methyl-pyrazol-3-yl]-4-chloro-3-fluoro-naphthalene-1-carbonitrile] | 307 | 248 | 93 | – | –
9 | Cn1ncc(-c2ccc3c(=O)[nH]nc(CN)c3c2)c1-c1c(F)c(Cl)c2ccccc2c1C#N (single isomer, unassigned) [Example 16-10, (M)-2-[4-[4-(aminomethyl)-1-oxo-2H-phthalazin-6-yl]-2-methyl-pyrazol-3-yl]-4-chloro-3-fluoro-naphthalene-1-carbonitrile] | 10 | 15.8 | 3 | – | –
10 | Cc1cc(-c2cnn(C)c2-c2c(F)cc3ccccc3c2C#N)cc2c(CN)n[nH]c(=O)c12 (single isomer, unassigned) [Example 16-15, (P)-2-[4-[4-(aminomethyl)-8-methyl-1-oxo-2H-phthalazin-6-yl]-2-methyl-pyrazol-3-yl]-3-fluoro-naphthalene-1-carbonitrile] | 33 | 95 | 17 | – | –
11 | Cc1cc(-c2cnn(C)c2-c2c(F)cc3ccccc3c2C#N)cc2c(CN)n[nH]c(=O)c12 (single isomer, unassigned) [Example 16-16, (M)-2-[4-[4-(aminomethyl)-8-methyl-1-oxo-2H-phthalazin-6-yl]-2-methyl-pyrazol-3-yl]-3-fluoro-naphthalene-1-carbonitrile] | 6 | 13.6 | 6 | – | –
12 | Cc1c(F)c(-c2c(-c3cc(C)c4c(=O)[nH]nc(CN)c4c3)cnn2C)c(C#N)c2ccccc12 (single isomer, unassigned) [Example 16-41, (P)-2-[4-[4-(aminomethyl)-8-methyl-1-oxo-2H-phthalazin-6-yl]-2-methyl-pyrazol-3-yl]-3-fluoro-4-methyl-naphthalene-1-carbonitrile] | 290 | 640 | 246 | – | –
13 | Cc1c(F)c(-c2c(-c3cc(C)c4c(=O)[nH]nc(CN)c4c3)cnn2C)c(C#N)c2ccccc12 (single isomer, unassigned) [Example 16-42, (M)-2-[4-[4-(aminomethyl)-8-methyl-1-oxo-2H-phthalazin-6-yl]-2-methyl-pyrazol-3-yl]-3-fluoro-4-methyl-naphthalene-1-carbonitrile] | 7 | 4.55 | 6 | – | –
14 | Cn1ncc(-c2ccc3c(=O)[nH]nc(CN)c3c2)c1-c1ccc2ccc(Cl)cc2c1C#N [Example 4-258, 2-[4-[4-(aminomethyl)-1-oxo-2H-phthalazin-6-yl]-2-methyl-pyrazol-3-yl]-7-chloro-naphthalene-1-carbonitrile] | – | – | – | 28 | 89
15 | Cn1ncc(-c2ccc3c(=O)[nH]nc(CN)c3c2)c1-c1c(Cl)cc2ccccc2c1Cl [Example 4-259, 4-(aminomethyl)-6-[5-(1,3-dichloro-2-naphthyl)-1-methyl-pyrazol-4-yl]-2H-phthalazin-1-one] | – | – | – | 97 | 837
16 | Cn1ncc(-c2ccc3c(=O)[nH]nc(CN)c3c2)c1-c1ccc2ncc(F)cc2c1C#N [Example 4-264, 6-[4-[4-(aminomethyl)-1-oxo-2H-phthalazin-6-yl]-2-methyl-pyrazol-3-yl]-3-fluoro-quinoline-5-carbonitrile] | – | – | – | 23 | 83
17 | Cn1ncc(-c2ccc3c(=O)[nH]nc(CN)c3c2)c1-c1cccc2cccc(C#N)c12 [Example 4-265, 8-[4-[4-(aminomethyl)-1-oxo-2H-phthalazin-6-yl]-2-methyl-pyrazol-3-yl]naphthalene-1-carbonitrile] | – | – | – | 1000 | 1650
18 | Cn1ncc(-c2cc(Cl)c3c(=O)[nH]nc(CN)c3c2)c1-c1c(F)c(Cl)cc(OC2CC2)c1C#N [Example 10-25, 2-[4-[4-(aminomethyl)-8-chloro-1-oxo-2H-phthalazin-6-yl]-2-methyl-pyrazol-3-yl]-4-chloro-6-(cyclopropoxy)-3-fluoro-benzonitrile] | – | – | – | 8 | 30
19 | Cc1cc(-c2cnn(C)c2-c2c(C#N)cc3ccccc3c2Cl)cc2c(CN)n[nH]c(=O)c12 [Example 10-26, 3-[4-[4-(aminomethyl)-8-methyl-1-oxo-2H-phthalazin-6-yl]-2-methyl-pyrazol-3-yl]-4-chloro-naphthalene-2-carbonitrile] | – | – | – | 35 | 83
20 | CCc1cccc(-c2c(-c3cc4c(CN)n[nH]c(=O)c4cn3)cnn2C)c1C#N [Example 17-1, 2-[4-[1-(aminomethyl)-4-oxo-3H-pyrido[3,4-d]pyridazin-7-yl]-2-methyl-pyrazol-3-yl]-6-ethyl-benzonitrile] | – | – | – | 538 | 3870
21 | Cn1ncc(-c2ccc3c(=O)[nH]nc(CN)c3c2F)c1-c1ccc2ccccc2c1C#N [Example 17-2, 2-[4-[4-(aminomethyl)-5-fluoro-1-oxo-2H-phthalazin-6-yl]-2-methyl-pyrazol-3-yl]naphthalene-1-carbonitrile] | – | – | – | 80 | 432
